Experimental data from US20240140953A1, “INHIBITORS OF MENIN-MLL INTERACTION” (BIOMEA FUSION, INC., priority 2018, published 2024).
Read-outs that look alike come from different tables or passages of the source.

Legend:
MV-4-11 = experiment: Long term proliferation assay (Table 3A), MV-4-11; format: cell-based; conditions: Homo sapiens, MV4-11
Protocol: (§1) Example 5b: IC50 determination of compounds of invention in various cell lines (Long Term Proliferation Assay)
(§2) The following 5 cell lines are used or can be used for the long term proliferation assay.
(§3) Compounds of invention are tested in the 5 suspension lines by 14-day long-term proliferation assay.
(§4) The compound is tested in 10-pt dose titration (client will determine the starting concentration and the dilution scheme) and the final DMSO concentration is kept at 0.2%.
(§5) Vehicle and media control are also included. All treatments are done in triplicate.
(§6) 3 plates are used for each cell line and 15 plates are used for the 5 cell lines.
(§7) • 1) On Day 0, in a flat bottom 96-well plate, add 100 μL of cells per well at the densities optimized. • 2) Prepare compounds in DMSO at 500× final concentration. Dilute the compounds with DMSO at the dilution. • 3) Dilute the compounds in media at 3×final concentration. Add 50 μL of compound or DMSO at 3× final concentration to each well. Final volume in each well is 150 μL, and final concentration of DMSO is 0.2%. Also include 3 untreated control wells, by adding 50 μL of media alone. 4) Incubate plates for 96 hours. • 5) Count the cells using the Acumen, with capabilities for 96-well plates. Pipette cells up and down to mix in each well, and add desired volume of cells to a new flat bottom poly-D-lysine 96-well plate. Add Calcein AM at 1 μM final concentration. Let cells sit at RT for 10 mins followed by a quick spin to get cells settled on the bottom of the wells. Incubate the plate for additional 40 mins in the incubator. Take out the plate and read by Acumen. Calculate the cell numbers taken into account the dilution factors. • 6) Split the master plate. To do this take the total viable cell count calculated using step 5). Take the average of the replicates for each dose in order to be used in splitting the cells. • 7) Use a 96 well V-bottom plate to spin down the cells to remove old media and compound to split the cells. Based on the split ratio place the proper amount of media and cells into the V-bottom plate, and spin the plate at 1100 rpm for 5 minutes. • 8) Following the spin remove the media, careful not to disturb the cellpellet. • 9) Re-suspend pellet in 100 μL fresh media, and add to a new 96-well flat bottom plate. • 10) Add fresh compound, in the same manner as Step 3). • 11) Incubate plates for 72 hours. Repeat steps 5)-10) on Day 7. • 12) Incubate plates for 96 hours. Repeat Step 5)-10) on Day 11. • 13) Incubate 72 hours and repeat step 5) to take a final count. • 14) Data Analysis
(§8) To calculate growth for days 4, 7, 11, and 14: • Calculate the split factor for day 4 to 7, day 7 to 11, and day 11-14.

MOLM-13 = experiment: Long term proliferation assay (Table 3A), MOLM-13; format: cell-based; conditions: Homo sapiens
Protocol: as §1, §2, §3, §4, §5, §6, §7, §8

menin = menin (Homo sapiens (Human), UniProt O00255); experiment: Kd (Table 3A); format: binding
HL-60 = experiment: Proliferation study, CellTiterGlo, 4 days (Example 102), HL-60; format: cell-based; conditions: HL-60, 4 days treatment; for HL-60 % max: maximal inhibition; for IC50: Homo sapiens, 96 h, CellTiterGlo
Description: (§9) The objective of the study was to evaluate the ability of representative compounds of the present invention, inhibitors of Menin/MLL interaction to inhibit cell proliferation. The proliferation inhibitory effect was investigated in two human MLL-leukemia cells selected on the bases of MLL fusion protein and listed in Table 102. HL-60 cell line was used as negative control.
(§10) ATP is present in all metabolically active cells and is considered as a marker for cell viability and proliferation. The metabolic cell activity was determined using the CellTiter-Glo kit from Promega, an ATP monitoring system based on the production of luminescence by the reaction of ATP with added UltraGlo® recombinant luciferase (Kawano et al., 2016), according to the supplier's experimental recommendations.
(§11) The described assay evaluates the ability of 4 representative compounds to inhibit the cell proliferation in the human MLL-leukemia cells plus a negative control cell line.
(§12) The assay provides potency values (IC50) for each test compound at a single time point Day 4 (T4).
(§13) Seven concentrations of the compounds (2.00E-05-6.67E-06-2.22E-06-7.41E-07-2.47E-07-8.23E-08-2.74E-08M), were assessed in duplicate in an individual test occasion in all the cell lines. MI-503 (Borkin et al., 2015) was used as reference compound and was tested at the same concentrations as the NCEs. 100% of proliferation is represented by the untreated cells (0.2% DMSO). The cell growth was monitored up to 4 days in culture.
(§14) MV4-11, MOLM-13 and HL-60 cells (see Table 2) were maintained in RPMI-1640 medium (Invitrogen, Cat. n. 618700, Batch n. 1965930) supplemented with 10% of Heat Inactivated FBS (Invitrogen, Cat n. 10500, Batch n. 08Q8078K) and 1% Pen-Strep (Invitrogen, Cat. N. 15140, Batch n. 1910859) and cultured at 37° C. in a humidified incubator with 5% CO2. All the cell lines grow in suspension and the cell density was maintained in a range of 2×10^5-1×10^6 viable cells/ml. Cells were pelleted at 130 g×5 min and conditioned medium was used to dilute the cell suspension.
(§15) Test items were dissolved in glass vials at 10 mM in DMSO with purity ≥99.9% (Sigma, D8418, batch n. SHBH4245V) and stored at −20° C. in 1.5 mL Eppendorf tubes.
(§16) Serial dilutions 1 to 3 in DMSO 100% were prepared starting from a 10 mM stock solutions to generate 7 points concentration response curve (CRC).
(§17) For each plate to test, one 0.4 μL copy plate and four 0.3 μL copy plates were then stamped into 96-well plates not treated for cell adhesion (Sarstedt—cat.no. 82.1581.001) by acoustic liquid Handling, Echo, at a concentration which was 500 fold the final assay concentration. Stamped plates were stored at −20° C. The final concentrations for the reference compound, MI-503, and the test items were: 2.00E-05, 6.67E-06, 2.22E-06, 7.41E-07, 2.47E-07, 8.23E-08 and 2.74E-08 M.
(§18) Cells were plated in 96-well flat bottom microtiter plates at cell density of 15,000 cells/ml for HL-60, 1000 cells/ml for MOLM-13 and 10,000 cell/ml for MV4-11. Cells were treated with 0.2% DMSO (Sigma, D8418, batch n. SHBH4245V) or serial dilutions of compounds (0.027 μM-20 μM) in DMSO (0.2% final concentration). Cells were incubated in a 5% CO2 incubator at 37° C. for 4 days. A CellTiterGlo viability assay (Promega) was employed. Luminescence was read by using VictorV (Perkin Elmer) multilabel plate reader using the standard protocol for luminescence in 96 well plate. The experiment was performed in duplicate.
(§19) Data were expressed as % of inhibition compared to the 0.2% DMSO negative control, and was calculated as follows: […]
(§20) CRCs were analysed by GraphPad and IC50 values were calculated by non-linear regression using 4 parameter-logistic equation. IC50 (μM) values were reported in the final data table. The curve fittings were performed leaving free all the parameters. Any constrain were reported in the results table.

MV4-11 (MLL-AF4) = experiment: Proliferation study, CellTiterGlo, 4 days (Example 102), MV4-11; format: cell-based, human; conditions: MV4-11, 4 days treatment; for IC50: Homo sapiens, MV4-11, 96 h, CellTiterGlo; for MV4-11 (MLL-AF4) % max: maximal inhibition
Description: as §9, §10, §11, §12, §13, §14, §15, §16, §17, §18, §19, §20

MOLM-13 (MLL-AF9) = experiment: Proliferation study, CellTiterGlo, 4 days (Example 102), MOLM-13; format: cell-based, human; conditions: MOLM-13, 4 days treatment; for IC50: Homo sapiens, 96 h, CellTiterGlo; for MOLM-13 (MLL-AF9) % max: maximal inhibition
Description: as §9, §10, §11, §12, §13, §14, §15, §16, §17, §18, §19, §20

[1] = MV-4-11, Day 4, read-out: MV-4-11 Day 4 IC50
[2] = MV-4-11, Day 11, read-out: MV-4-11 Day 11 IC50
[3] = 96 h, MOLM-13, Day 4, read-out: MOLM-13 Day 4 IC50
[4] = 264 h, MOLM-13, Day 11, read-out: MOLM-13 Day 11 IC50
[5] = read-out: HL-60 pIC50 (converted)
[6] = read-out: MV4-11 (MLL-AF4) IC50
[7] = read-out: MV4-11 (MLL-AF4) pIC50 (converted)
[8] = read-out: MOLM-13 (MLL-AF9) IC50
[9] = read-out: MOLM-13 (MLL-AF9) pIC50 (converted)

menin, sequence (O00255 whole entry, species assumed): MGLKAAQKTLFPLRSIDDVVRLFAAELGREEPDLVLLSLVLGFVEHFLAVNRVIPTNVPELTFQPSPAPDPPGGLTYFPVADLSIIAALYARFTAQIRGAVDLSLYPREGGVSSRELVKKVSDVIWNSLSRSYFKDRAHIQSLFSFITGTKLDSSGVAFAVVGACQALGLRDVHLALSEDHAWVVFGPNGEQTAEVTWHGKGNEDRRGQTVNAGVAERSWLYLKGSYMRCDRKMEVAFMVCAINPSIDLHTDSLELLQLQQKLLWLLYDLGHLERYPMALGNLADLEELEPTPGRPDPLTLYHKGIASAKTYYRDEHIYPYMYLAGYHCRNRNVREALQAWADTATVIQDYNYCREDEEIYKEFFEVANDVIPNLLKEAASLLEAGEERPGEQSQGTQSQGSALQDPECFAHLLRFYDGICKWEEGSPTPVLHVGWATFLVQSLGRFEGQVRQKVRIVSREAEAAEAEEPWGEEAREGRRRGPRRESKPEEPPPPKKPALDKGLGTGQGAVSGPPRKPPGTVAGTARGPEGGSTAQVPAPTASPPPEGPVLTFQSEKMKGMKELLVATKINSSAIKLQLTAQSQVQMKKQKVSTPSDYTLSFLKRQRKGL

Structure (SMILES)	IC50 (MV-4-11; [1])	IC50 (MV-4-11; [2])	IC50 (MOLM-13; [3])	IC50 (MOLM-13; [4])	Kd (menin)	HL-60 % max (HL-60)	IC50 (HL-60; read-out: HL-60 IC50)	IC50 (HL-60; [5])	IC50 (MV4-11 (MLL-AF4); [6])	IC50 (MV4-11 (MLL-AF4); [7])	MV4-11 (MLL-AF4) % max (MV4-11 (MLL-AF4))	IC50 (MOLM-13 (MLL-AF9); [8])	IC50 (MOLM-13 (MLL-AF9); [9])	MOLM-13 (MLL-AF9) % max (MOLM-13 (MLL-AF9))
O=C(Cc1cc(-c2cccnc2)no1)Nc1ccc(-c2cc3c(N4CCOCC4)ncnc3[nH]2)cc1 [Compound 5, N-{4-[4-(morpholin-4-yl)-7H-pyrrolo[2,3-d]pyrimidin-6-yl]phenyl}-2-[3-(pyridin-3-yl)-1,2-oxazol-5-yl]acetamide]	129 nM	66 nM	115 nM	32 nM	–	–	–	–	–	–	–	–	–	–
CC(C)c1c(-c2cccnc2)noc1NC(=O)Nc1ccc(-c2cc3c(N4CCOCC4)ncnc3[nH]2)cc1 [Compound 6, 1-{4-[4-(morpholin-4-yl)-7H-pyrrolo[2,3-d]pyrimidin-6-yl]phenyl}-3-[4-(propan-2-yl)-3-(pyridin-3-yl)-1,2-oxazol-5-yl]urea]	229 nM	74 nM	178 nM	50 nM	–	–	–	–	–	–	–	–	–	–
CC(C)c1cc(-c2cc3c(N4CCOCC4)ncnc3[nH]2)ccc1NC(=O)Nc1cc(-c2cccnc2)no1 [Compound 7, 1-{4-[4-(morpholin-4-yl)-7H-pyrrolo[2,3-d]pyrimidin-6-yl]-2-(propan-2-yl)phenyl}-3-[3-(pyridin-3-yl)-1,2-oxazol-5-yl]urea]	891 nM	631 nM	933 nM	871 nM	–	–	–	–	–	–	–	–	–	–
O=C(Cc1cc(-c2cccnc2)n[nH]1)Nc1ccc(-c2cc3c(N4CCOCC4)ncnc3[nH]2)cc1 [Compound 10, N-{4-[4-(morpholin-4-yl)-7H-pyrrolo[2,3-d]pyrimidin-6-yl]phenyl}-2-[3-(pyridin-3-yl)-1H-pyrazol-5-yl]acetamide]	220 nM	–	310 nM	–	2700 ± 4000 nM	65%	360 nM	363 nM	220 nM	224 nM	100%	310 nM	309 nM	94%
Cc1cn(-c2ncnc3[nH]c(-c4ccc(NC(=O)Cc5cc(-c6cccnc6)n[nH]5)cc4)cc23)cn1 [Compound 13, N-{4-[4-(4-methyl-1H-imidazol-1-yl)-7H-pyrrolo[2,3-d]pyrimidin-6-yl]phenyl}-2-[3-(pyridin-3-yl)-1H-pyrazol-5-yl]acetamide]	910 nM	–	1230 nM	–	–	112%	2750 nM	2750 nM	910 nM	912 nM	105%	1230 nM	1230 nM	101%
